According to paper PMC6009935 (Journal of Enzyme Inhibition and Medicinal Chemistry, 2017):
Like-named read-outs stand apart in the source and are kept apart here.

Assays:
G-protein = assay: Functional [35S]GTPγS binding assay on rat brain membrane homogenates; assay type: biochemical; settings: rat brain membrane homogenates; for Emax ± S.E.M. (maximal G-protein efficacy): basal activity = 100%; for LogEC50 ± S.E.M. (ligand potency): logarithm of EC50, negative sign printed
Experimental: The experiments were performed by [35S]GTPγS binding assays to control the GDP to GTP exchange of the α-subunit of Gi-protein. […] We examined the opioid receptor binding affinity of 5 in competition binding experiments, using opioid receptor selective radioligands. […]
Functional [35S]GTPγS binding experiments
The functional [35S]GTPγS binding experiments were performed as previously described,5,6 with modifications. Briefly the rat brain membrane homogenates containing ~10 µg/mL protein were incubated at 30 °C for 60 min in Tris-EGTA buffer (pH 7.4) composed of 50 mM Tris-HCl, 1 mM EGTA, 3 mM MgCl2, 100 mM NaCl, containing 20 MBq/0.05 cm3 [35S]GTPγS (0.05 nM) and […]
compound 9 together with excess GDP (30 µM) in a final volume of 1 mL. Total binding was measured in the absence of test compounds, non-specific binding was determined in the presence of 10 µM unlabelled GTPγS. The bound and unbound [35S]GTPγS was separated as described in the […]
competition binding assays section through Whatmann GF/B glass fibers. The radioactivity of the filters was also detected as described above. [35S]GTPγS binding experiments were performed in triplicates and repeated at least three times.
The specific binding of all radiolabeled compounds was calculated by the subtraction of non-specific binding from total binding and was given in percentage. The data was normalized to total specific binding, which was settled 100%, which in case of [35S]GTPγS also represents the basal activity of the G-protein. Experimental data were presented as means ± S.E.M in the function of the applied ligand concentration range in logarithm form. Points were fitted with the professional curve fitting program, GraphPad Prism 5.0 (GraphPad Prism Software Inc., San Diego, CA), using non-linear regression. In the radioligand competition binding assays the ‘One-site competition’, while in [35S]GTPγS binding assays the ‘Sigmoid dose-response’ equation was applied to determine IC50 (unlabeled ligand affinity) and the maximum G-protein efficacy (Emax) and ligand potency (EC50), respectively. For IC50 and EC50 values standard error is only given in their logarithm form by the curve fitting program due to the data representation. In competition binding experiments the Ki value was calculated according to Cheng-Prusoff equation.7 […]
binding assays. In figure B, 5 is indicated again for better comparison. Figures represents the specific binding of [35S]GTPγS in percentage in the presence of increasing concentrations (10-10-10-5 M) of the indicated ligands in rat brain membrane homogenates. “Basal” on the x-axis indicates the basal activity of the monitored G-protein, which is measured in the absence of the compounds and also represents the total specific binding of [35S]GTPγS. The level of basal activity was defined as 100% and is presented with a dotted line. Points represent means ± S.E.M. for at least three experiments performed in triplicate.

[1] = target: T1, cannabinoid receptors (CBR) (Rattus norvegicus, UniProt P20272); assay: biochemical; assay type: binding
T1 construct: a: performed in rat whole brain membrane homogenates; from tissue; host or cells: Wistar rat whole brain membrane homogenate
Experimental: Tris-HCl, EGTA, NaCl, MgCl2 x 6H2O, GDP, the GTP analogue GTPγS, were purchased from Sigma-Aldrich (Budapest, Hungary). Fatty acid free bovine serum albumin (BSA) was purchased from Serva (Heidelberg, Germany). Naloxone was kindly provided by the company Endo Laboratories DuPont de Nemours (Wilmington, DE, USA). HS665 was provided by Schmidhammer’s group (University of Innsbruck, Austria). […]
purchased from Tocris Bioscience (Bristol, UK).
DMSO. All compounds were stored in 1 mM stock solution at -20 °C. The radiolabelled GTP analogue, [35S]GTPγS (specific activity: 1000 Ci/mmol) were purchased from Hartmann Analytic (Braunschweig, Germany). [3H]DAMGO (specific activity: 38.8 Ci/mmol),12 [3H]IleDelt II (specific activity: 19,6 Ci/mmol), [3H]WIN55,212-2 (specific activity: 13,1 Ci/mmol) and [3H]HS665 (specific activity: 36.62 Ci/mmol),3 were radiolabeled by the Laboratory of Chemical Biology group in BRC (Szeged, Hungary).
For membrane homogenate preparations male and female Wistar rats (250-300 g body weight) and male guinea pigs (~700 g body weight, LAL/HA/BR strain) were used. Rats were housed in the local animal house of BRC (Szeged, Hungary), while guinea pigs were housed in LAB-ÁLL Bt.
(Budapest, Hungary). All the animals were kept in a temperature controlled room (21-24 °C) under a 12:12 light and dark cycle and were provided with water and food ad libitum. All housing and experiments were conducted in accordance with the European Communities Council Directives (2010/63/EU) and the Hungarian Act for the Protection of Animals in Research (XXVIII.tv. 32.§).
The total number of animals as well as their suffering was minimized.
Rat and guinea pig brain membrane homogenate preparation for binding assays Rats and guinea pigs were decapitated and their brains were quickly removed. The brains were prepared for membrane preparation as previously described,4 and partly used for binding experiments and partly were further prepared for the [35S]GTPγS binding experiments. Briefly the brains were homogenized, centrifuged in ice-cold 50 mM Tris-HCl (pH 7.4) buffer and incubated at 37 °C for 30 min in a shaking water-bath. After incubation the centrifugation was repeated as described above and the final pellet was suspended in 50 mM Tris-HCl pH 7.4 buffer containing 0.32 M sucrose, and stored at -80 °C. For the [35S]GTPγS binding experiments the final pellet of rat […]
brain membrane homogenate was suspended in ice-cold TEM (Tris-HCl, EGTA, MgCl2) and stored at -80 °C for further use.
Radioligand competition binding experiments
Aliquots of frozen rat brain membrane homogenates were centrifuged (18 000 rpm, 20 min, 4 °C) to remove sucrose and the pellets were suspended in 50 mM Tris-HCl buffer (pH 7.4). Membranes containing 0.4-0.8 mg/mL of protein were incubated in a final volume of 1 mL in the presence of unlabeled 5, 10 and 9 in increasing concentrations (10-11-10-5 M) in the presence of the appropriate radioligand in ~1 nM concentrations at certain temperature and amount of time depending on the radioligand ([3H]DAMGO and [3H]IleDelt II: 35 °C for 45 min; [3H]HS665: 30 °C, 45 min; [3H]WIN55,212-2: 30 °C for 60 min). Experiments performed with [3H]HS665 where incubated […]
more kappa receptors than the rat brain), while the rest of the radioligands were incubated together with rat whole brain membrane homogenates. Additionally, in experiments performed with […]
increasing concentrations (10-11-10-5 M) together with 50 mM Tris/HCl, 2.5 mM EGTA, 5 mM MgCl2 and 0.5 mg/mL fatty acid free BSA (pH 7.4). The level of non-specific binding was […]
binding was determined in the absence of unlabeled compounds. The reaction was terminated by rapid filtration under vacuum (Brandel M24R Cell Harvester), and washed three times with 5 mL ice-cold 50 mM Tris-HCl or 50 mM Tris/HCl, 2.5 mM EGTA, 5 mM MgCl2, 0.5 % BSA (pH 7.4) in case of [3H]WIN55,212-2. The filtration was accomplished through Whatman GF/C ([3H]DAMGO, [3H]IleDelt II and [3H]HS665) or GF/B ([3H]WIN55,212-2) glass fibers. In case of […]

[2] = rat whole brain membrane homogenates, Cheng-Prusoff, read-out: Ki, [3H]WIN55,212 (CBR)
[3] = rat whole brain membrane homogenates, logarithm of IC50, negative sign printed, read-out: logIC50 ± S.E.M., [3H]WIN55,212 (CBR) (converted)

T1 sequence (P20272 whole entry): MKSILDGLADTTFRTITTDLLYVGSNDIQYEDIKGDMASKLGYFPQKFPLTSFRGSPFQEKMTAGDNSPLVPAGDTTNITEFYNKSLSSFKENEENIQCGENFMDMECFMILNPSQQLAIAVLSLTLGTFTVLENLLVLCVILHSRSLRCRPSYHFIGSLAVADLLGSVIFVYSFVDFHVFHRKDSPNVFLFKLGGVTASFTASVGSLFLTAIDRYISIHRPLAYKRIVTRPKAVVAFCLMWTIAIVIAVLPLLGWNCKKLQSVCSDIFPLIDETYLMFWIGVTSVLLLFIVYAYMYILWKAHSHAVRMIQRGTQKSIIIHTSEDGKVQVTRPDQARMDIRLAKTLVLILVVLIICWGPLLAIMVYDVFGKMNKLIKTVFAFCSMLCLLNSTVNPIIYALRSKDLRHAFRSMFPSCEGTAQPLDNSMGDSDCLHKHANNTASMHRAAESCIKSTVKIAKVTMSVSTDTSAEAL

Compound | EC50 (G-protein) [nM] | Emax ± S.E.M. (maximal G-protein efficacy) (G-protein) [%] | LogEC50 ± S.E.M. (ligand potency) (G-protein) | IC50 [1] [nM] | Ki [1] [nM] | Ki [1, 2] [nM] | IC50 [1, 3] [nM]
Cc1c(C(=O)NN2CCCCC2)nn(-c2ccc(Cl)cc2Cl)c1-n1cccc1 [Compound 1] | 1620 | 26 ± 5.27 | −5.78 ± 0.11 | 195 | 126 |  | 
Cc1c(C(=O)N2CCN(C(=O)OCc3ccccc3)CC2)nn(-c2ccc(Cl)cc2Cl)c1-n1cccc1 [Compound 2] | 1540 | 22.95 ± 4.3 | −5.81 ± 0.09 |  |  | 710 | 1100
Cc1c(C(=O)NC2CCN(C(=O)OC(C)(C)C)CC2)nn(-c2ccc(Cl)cc2Cl)c1-n1cccc1 [Compound 3] | 2690 | 12.78 ± 8.48 | −5.57 ± 0.15 |  |  | 193 | 295
Cc1c(C(=O)NC2CCCCC2)nn(-c2ccc(Cl)cc2Cl)c1-n1cccc1 [Compound 4] | 1870 | 55.95 ± 8.44 | −5.72 ± 0.3 | 575 | 370 |  | 
Cc1c(C(=O)NN2CCCCC2)nn(-c2ccc(Cl)cc2Cl)c1-c1ccc(Cl)cc1 [Rimonabant, reference compound] | 2200 | 17.5 ± 5.72 | −5.65 ± 0.12 |  |  |  | 
